Measurements as given in US7595345B2, “Vitamin D receptor modulators” (Eli Lilly and Company, priority 2003, dated 2009).
pEC50: −log10 of the molar value.

Columns and labels:
[1] = Mouse hypercalcemia assay; assay type: in vivo; settings: female DBF mice, oral gavage for 6 days, serum ionized calcium 6 hours after last dosing
Excerpt: 4. The Mouse Hypercalcemia Assay
(4) Materials and Method for the Mouse Hypercalcemia Assay: […]

[2] = molecular target: T1, RXR-VDR heterodimer (Gal4-RXR-DEF and VP16-VDR-LBD) (Homo sapiens, UniProt P11473); experiment: RXR-VDR heterodimerization assay (SaOS-2 cells); assay type: cell-based; settings: luciferase reporter pFR-LUC
T1 construct: Add the Gal4-RXR-DEF and VP16-VDR-LBD; expressed in transfected cells; host or cells: SaOs-2 cells
T1 sequence (P11473 127-423 limits assumed): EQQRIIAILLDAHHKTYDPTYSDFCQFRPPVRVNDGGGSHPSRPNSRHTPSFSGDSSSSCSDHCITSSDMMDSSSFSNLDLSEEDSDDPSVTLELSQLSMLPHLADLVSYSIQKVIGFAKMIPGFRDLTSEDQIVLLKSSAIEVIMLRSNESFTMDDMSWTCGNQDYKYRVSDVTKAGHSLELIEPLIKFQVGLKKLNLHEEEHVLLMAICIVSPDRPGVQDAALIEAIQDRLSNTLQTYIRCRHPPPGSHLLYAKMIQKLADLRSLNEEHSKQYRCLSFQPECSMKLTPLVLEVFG
T1 sequence (P19793 201-462 partner limits assumed): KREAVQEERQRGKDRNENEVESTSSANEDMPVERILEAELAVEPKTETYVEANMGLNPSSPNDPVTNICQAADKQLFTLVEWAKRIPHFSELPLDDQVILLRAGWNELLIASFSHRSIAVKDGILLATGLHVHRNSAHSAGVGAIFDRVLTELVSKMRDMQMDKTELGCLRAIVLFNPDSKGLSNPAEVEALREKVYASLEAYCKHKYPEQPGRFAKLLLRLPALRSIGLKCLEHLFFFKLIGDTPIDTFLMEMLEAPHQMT
Excerpt: 1. The RXR-VDR Heterodimer Assay:
This assay provides the VDR activity of a test compound.
This is an in vitro efficacy assay for psoriasis, abscess and adhesion. Psoriasis involves both keratinocytes and immune cells. IL-10 is a unique cytokine because it is anti-inflammatory and immunosuppressive. This assay tells us whether a VDRM is able to function as an agonist in PBMCs (primary blood mononuclear cells) or not. […] 7. Other Compound Assay Standards An alternative measure of the efficacy of compounds of the invention for treatment of osteoporosis is a numerical ratio calculated as follows: • Dose Threshold needed to induce hypercalcemia • divided by • Dose Threshold needed for bone efficacy An alternative measure of the efficacy of compounds of the invention for treatment of psoriasis is a numerical ratio calculated as follows: • Dose Threshold needed to induce hypercalcemia • divided by • Dose Threshold needed to induce keratinocyte proliferation For the above ratios, Dose Thresholds are determined from dose response curve data. 8. The CaT1 (Calcium Transport Protein 1) Assay The CaT1 Assay is an indicator for the undesirable condition of hypercalcemia. […] Preferred assay results are greater than 1000 nM. Details of the Assay Methods: (1) Materials and Method for RXR-VDR Heterodimerization Assay: Transfection Method:
Grow SaOs-2 cells in T-152 cm^2 culture flasks in growth media.
Keep the density at 5-6×10^5 cells/ml
Passage cells 1:3 twice a week
Resuspend cells in plating media and transfer into growth media.
Transfection/Treatment Media:
D-MEM Low Glucose Without Phenol Red only
T-152 cm^2 culture flask:
Use well plate to plate cells
Use Deep well plate sterile to make up treatment media.
Luciferase Assay Reagent:
Use Steady-Glo Luciferase Reagent from Promega (Cat #E2550) Consists of:
a. E2533 Assay Substrate, lyophilized product and
Aspirate media from culture flask, rinse cells with HBSS and aspirate.
Add trypsin and incubate. […]
Read the plates after drug treatment […]
Count each well using a Luminescence counter, Top Count NXT by Packard […]

[3] = system: rat osteocalcin promoter; experiment: OCN (osteocalcin) promoter assay; assay type: cell-based; settings: Rattus norvegicus, 48 h, RG-15 (ROS 17/2.8) cells, 48 hr treatment, luciferase
Experimental: 3. The OCN (Osteocalcin) Promoter Assay
The OCN Promoter Assay is an indicator and marker for osteoporosis. Desired assay results are EC50 less than or equal to […]. Preferred assay results are less than […].
(3) Materials and Method for the OCN Promoter Assay:
The activation of osteocalcin by VDR ligands was evaluated in a rat osteoblast-like cell line RG-15 (ROS 17/2.8) stably expressing rat osteocalcin promoter fused with luciferase reporter gene. The stable cell lines were established as reported before (Activation of Osteocalcin Transcription involves interaction of protein kinase A- and Protein kinase C-dependent pathways. Boguslawski, G., Hale, L. V., Yu, X.-P., Miles, R. R., Onyia, J. E., Santerre R. F., Chandrasekhar, S. J. Biol. Chem. 275, 999-1006, 2000). Confluent RG-15 cells maintained in DMEM/F-12 medium (3:1) containing 5% FBS, 300 µg/ml G418 and at 37° C. under 5% CO2/95% air atmosphere were trypsinized (0.25% trypsin) and plated into white opaque 96-well cell culture plates (25000 cells/well). After 24 hr, cells (in DMEM/F-12 medium+2% FBS) were treated with various concentrations of compounds, dissolved in DMSO. The final DMSO concentration remained at 0.01% (v/v). After 48 hr treatment, the medium was removed, cells were lysed with 50 µl of lysis buffer (From Luciferase reporter assay system, Roche Diagnostics, Indianapolis, Ind.) and assayed for luciferase activity using the Luciferase Reporter Gene Assay kit from Boehringer Mannheim as per manufacturer's specifications.

[4] = molecular target: T2, VDR (pGal4-VDR-LBD) (Homo sapiens, UniProt P11473); experiment: VDR CTF (Caco-2 cell co-transfection assay); assay type: cell-based; settings: Caco-2 cells, Gal4-responsive reporter pFRLuc; surrogate for calcemic activity
T2 construct: the receptor expression vector pGal4-VDR-LBD (10 ng); expressed in transfected cells; host or cells: Caco-2 cells
T2 sequence (P11473 127-423 limits assumed): T1 sequence (P11473 127-423 limits assumed)
Experimental: 2. The Caco-2 Cell Co-Transfection Assay:
The Caco-2 cell assay is an indicator for the undesirable condition of hypercalcemia. This co-transfection assay is a surrogate assay for in vivo calcemic activity of VDR ligands. […] Preferred assay results are greater than 1000 nM.
(2) Materials and Method for the Caco-2 Cell Assay:
Caco-2 cells, grown in phenol red free, DMEM (Invitrogen, Carlsbad, Calif.) containing 10% charcoal-stripped FCS (Hyclone, Logan, Utah), were transfected with Fugene 6 reagent (Roche Diagnostics, Indianapolis, Ind.). Cells (5000/well) were plated 18 h before transfection in a 96 well plate. The Cells were transfected with Gal4-responsive reporter pFRLuc (150 ng, Stratagene, La Jolla Calif.) and the receptor expression vector pGal4-VDR-LBD (10 ng), along with Fugene 6 reagent (0.2 μl/well). The DNA-Fugene complex was formed by incubating the mixture for 30 min at room temperature. The cells were transfected in triplicate for 5 h, and treated with various concentrations of VDR ligands (form 0.01 nM to 10,000 nM concentration range) 18 h post-transfection. The luciferase activity was quantified using Steady-Glo reagent kit (Promega, Madison, Wis.) as per manufacturer's specifications.

- Mouse Hypercal [1]: 3000 µg/kg/day
- pEC50 [2]: 7.16
- pEC50 [3]: 9.02
- pEC50 [4]: 6.33
SMILES: CCC(CC)(c1ccc(C#CC2(O)CCCC2)c(C)c1)c1ccc(C(=O)NC(C)(C)C(=O)O)c(C)c1 [Ex. 1, 2-(4-{1-Ethyl-1-[4-(1-hydroxy-cyclopentylethynyl)-3-methyl-phenyl]-propyl}-2-methyl-benzoylamino)-2-methyl-propionic acid]
